Literature values as cited in patent publication US20090209656A1, “DISINFECTION/SANITATION METHOD WHERE THE MATERIAL IS TREATED WITH A SOLUTION COMPRISING BENZYL ALCOHOL AND C2-3 ALCOHOL” (GE HEALTHCARE BIO-SCIENCES AB, priority 2006, published 2009).

What was measured:
[1] = long-term exposure
[2] = acute toxicity

In the case of `OCc1ccccc1` [benzyl alcohol], the NOAEL [1] is listed as greater than 400 mg/kg body weight/day and the LD50 [2] is listed as 1610 mg/kg body weight.
